Experimental data taken from ChEMBL document CHEMBL5230157, “The natural anthraquinone dye purpurin exerts antibacterial activity by perturbing the FtsZ assembly” (Bioorg Med Chem, 2021).

Biological target: T1, Cell division protein FtsZ (Bacillus subtilis, UniProt A5Z1V5)
T1 sequence (A5Z1V5 whole entry): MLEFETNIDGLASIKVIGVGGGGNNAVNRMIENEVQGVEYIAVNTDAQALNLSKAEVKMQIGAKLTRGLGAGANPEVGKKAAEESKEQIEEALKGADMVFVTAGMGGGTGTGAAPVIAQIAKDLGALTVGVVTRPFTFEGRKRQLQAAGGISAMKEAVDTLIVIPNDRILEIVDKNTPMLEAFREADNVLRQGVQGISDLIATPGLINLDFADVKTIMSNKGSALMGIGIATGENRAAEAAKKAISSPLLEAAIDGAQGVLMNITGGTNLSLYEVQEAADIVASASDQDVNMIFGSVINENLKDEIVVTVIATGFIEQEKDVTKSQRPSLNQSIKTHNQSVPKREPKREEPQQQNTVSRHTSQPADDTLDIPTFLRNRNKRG
Experiment: Binding affinity to Bacillus subtilis FtsZ assessed as dissociation constant of intrinsic tryptophan quenching incubated for 30 mins by double reciprocal plot analysis

## CC1=CC(=O)c2c(O)cccc2C1=O [PLUMBAGIN]
  Kd: 15.8 µM
